Experimental data taken from patent US7723068B2, “Gene cluster involved in safracin biosynthesis and its uses for genetic engineering” (PharmaMar, S.A., priority 2002, dated 2010).

What was measured:
[1] = test system: SK-BR3; conditions: Breast
[2] = test system: LN-caP; assay: cells; conditions: Homo sapiens, LNCaP; for GI50: read-out: GI50 LN-caP; for CC50: read-out: LC50 LN-caP
[3] = test system: DU-145; assay: cells; conditions: Homo sapiens; for GI50: DU-145, read-out: GI50 DU-145; for CC50: DU-145, read-out: LC50 DU-145
[4] = test system: HELA; assay: cells; conditions: Homo sapiens; for GI50: read-out: GI50 HELA; for CC50: read-out: LC50 HELA
[5] = test system: SK-BR3; assay: cells; conditions: Homo sapiens; for GI50: SK-BR-3, read-out: GI50 SK-BR3; for CC50: SK-BR-3, read-out: LC50 SK-BR3
[6] = test system: K-562; conditions: Leukemia
[7] = test system: IGROV-ET; conditions: Ovary
[8] = test system: LOVO; conditions: Colon
[9] = test system: PANC1; conditions: Pancreas
[10] = test system: SK-MEL-28; conditions: Melanoma
[11] = test system: LOVO; assay: cells; conditions: Homo sapiens; for GI50: read-out: GI50 LOVO; for CC50: read-out: LC50 LOVO
[12] = test system: A549; assay: cells; conditions: Homo sapiens; for GI50: A549, read-out: GI50 A549; for CC50: A549, read-out: LC50 A549
[13] = test system: IGROV; assay: cells; conditions: for GI50: read-out: GI50 IGROV; for CC50: read-out: LC50 IGROV
[14] = test system: HT29; assay: cells; conditions: Homo sapiens; for GI50: HT-29, read-out: GI50 HT29; for CC50: HT-29, read-out: LC50 HT29
[15] = test system: HT29; conditions: Colon
[16] = test system: IGROV-ET; assay: cells; conditions: for GI50: read-out: GI50 IGROV-ET; for CC50: read-out: LC50 IGROV-ET
[17] = test system: IGROV; conditions: Ovary
[18] = test system: DU-145; conditions: Prostate
[19] = Antibacterial and antitumoral activities, general statements; conditions: compared with safracin A / safracin B
[20] = test system: LN-caP; conditions: Prostate
[21] = test system: LOVO-DOX; assay: cells; conditions: for GI50: read-out: GI50 LOVO-DOX; for CC50: read-out: LC50 LOVO-DOX
[22] = test system: A549; conditions: NSCL
[23] = test system: HELA-APL; assay: cells; conditions: for GI50: read-out: GI50 HELA-APL; for CC50: read-out: LC50 HELA-APL
[24] = test system: PANC1; assay: cells; conditions: Homo sapiens; for GI50: PANC-1, read-out: GI50 PANC1; for CC50: PANC-1, read-out: LC50 PANC1
[25] = test system: LOVO-DOX; conditions: Colon
[26] = test system: HELA-APL; conditions: Cervix
[27] = test system: SK-MEL-28; assay: cells; conditions: Homo sapiens; for GI50: SK-MEL-28, read-out: GI50 SK-MEL-28; for CC50: SK-MEL-28, read-out: LC50 SK-MEL-28
[28] = test system: K-562; assay: cells; conditions: Homo sapiens; for GI50: K562, read-out: GI50 K-562; for CC50: K562, read-out: LC50 K-562
[29] = test system: HELA; conditions: Cervix
[30] = test system: Bacillus subtilis; assay: Antimicrobial activity on solid medium, disk; format: cell-based; conditions: 10 μg/disk (6 mm diameter)
Procedure: Antimicrobial activity: On solid medium Bacillus subtilis. 10 μg/disk (6 mm diameter): 10 mm inhibition zone Spectroscopic Data: […]

[31] = test system: PROTEIN synthesis; assay: Secondary Screening, Macromolecules Synthesis PROTEIN; format: cell-based; conditions: Secondary Evaluation
[32] = test system: DNA synthesis; assay: Secondary Screening, Macromolecules Synthesis DNA; format: cell-based; conditions: Secondary Evaluation

In the case of COc1c(C)cc2c(c1O)C1NC(C2)C(O)N2C(CNC(=O)C(C)N)c3c(cc(C)c(OC)c3O)CC12 (stereo not drawn) [Safracin P-19B], the “TGI SK-BR3” value [1] is reported as 19.2 µM, the GI50 [2] is reported as 3.9 µM and the CC50 [2] is reported as 16.7 µM. The GI50 [3] was 17 µM, the CC50 [3] was > 19.5 µM and the GI50 [4] was 6.73 µM. The CC50 [4] was > 19.5 µM, the GI50 [5] was 7.08 µM and the CC50 [5] was > 19.5 µM. The “TGI K-562” value [6] was 5.77 µM, the “TGI IGROV-ET” value [7] was >19.5 µM and the “TGI LOVO” value [8] was >19.5 µM. For the same molecule, the “TGI PANC1” value [9] was >19.5 µM, the “TGI SK-MEL-28” value [10] was >19.5 µM and the GI50 [11] was > 19.5 µM. The CC50 [11] was > 19.5 µM, the GI50 [12] was > 19.5 µM and the CC50 [12] was > 19.5 µM. The GI50 [13] was 5.42 µM, the CC50 [13] was > 19.5 µM and the GI50 [14] was 15.5 µM. The CC50 [14] was > 19.5 µM, the “TGI HT29” value [15] was >19.5 µM and the GI50 [16] was 8.74 µM. The CC50 [16] was > 19.5 µM, the “TGI IGROV” value [17] was 14.8 µM and the “TGI DU-145” value [18] was >19.5 µM. For the same molecule, the “antibacterial and antitumoral activities (in words)” value [19] was “appear to loose their activity”, the “TGI LN-caP” value [20] was 8.06 µM and the GI50 [21] was 14.4 µM. The CC50 [21] was > 19.5 µM, the “TGI A549” value [22] was >19.5 µM and the GI50 [23] was 4.8 µM. For the same molecule, the CC50 [23] was 19.5 µM, the GI50 [24] was 18.1 µM and the CC50 [24] was > 19.5 µM. The “TGI LOVO-DOX” value [25] was >19.5 µM, the “TGI HELA-APL” value [26] was 10 µM and the GI50 [27] was 7.9 µM. The CC50 [27] was > 19.5 µM, the GI50 [28] was 2.38 µM and the CC50 [28] was 14 µM. The “TGI HELA” value [29] was 16.1 µM and the “Antimicrobial activity: inhibition zone” value [30] was “NO ACTIVE”.

With COC1=C(C)C(=O)C2=C(C1=O)C(CNC(=O)C(C)N)N1CC3Cc4cc(C)c(OC)c(O)c4C(N3)C1C2 (stereo not drawn) [Safracin E] the “TGI SK-BR3” value [1] was 9.24 µM, the GI50 [2] was 3.86 µM and the CC50 [2] was 15.4 µM. The GI50 [3] was 8.34 µM, the CC50 [3] was > 19.6 µM and the GI50 [4] was 4.15 µM. It also gave a CC50 [4] of 12.8 µM, a GI50 [5] of 5.05 µM and a CC50 [5] of 17 µM. The “TGI K-562” value [6] was 8.21 µM, the IC50 [31] was 15.7 µM and the “TGI IGROV-ET” value [7] was 8.25 µM. The “TGI LOVO” value [8] was >19.6 µM, the “TGI PANC1” value [9] was 14.7 µM and the “TGI SK-MEL-28” value [10] was 6.93 µM. The GI50 [11] was 7.15 µM, the CC50 [11] was > 19.6 µM and the GI50 [12] was 19.6 µM. For the same molecule, the CC50 [12] was > 19.6 µM, the GI50 [13] was 4.5 µM and the CC50 [13] was 17.4 µM. The GI50 [14] was 7.89 µM, the CC50 [14] was > 19.6 µM and the “TGI HT29” value [15] was 19.6 µM. For the same molecule, the GI50 [16] was 4.54 µM, the CC50 [16] was 14.9 µM and the “TGI IGROV” value [17] was 8.85 µM. For the same molecule, the “TGI DU-145” value [18] was 19.6 µM, the “antibacterial and antitumoral activities (in words)” value [19] was “the same antibacterial and antitumoral activities as safracin B and safracin A, respectively” and the IC50 [32] was > 19.6 µM. For the same molecule, the “TGI LN-caP” value [20] was 7.7 µM, the GI50 [21] was 5.07 µM and the CC50 [21] was 17.5 µM. For the same molecule, the “TGI A549” value [22] was >19.6 µM, the GI50 [23] was 4.03 µM and the CC50 [23] was 13 µM. The GI50 [24] was 6.05 µM, the CC50 [24] was > 19.6 µM and the “TGI LOVO-DOX” value [25] was 9.44 µM. For the same molecule, the “TGI HELA-APL” value [26] was 7.25 µM, the GI50 [27] was 3.94 µM and the CC50 [27] was 12.2 µM. The GI50 [28] was 4.25 µM, the CC50 [28] was 15.9 µM and the “TGI HELA” value [29] was 7.29 µM. It also gave a zone of inhibition at 10 µg/disc ([30]; Bacillus subtilis) of 9.5 mm.
